Reference: patent publication US11800867B2, “Methods of repelling biting arthropods, reducing pathogen spread and treating arthropod infestation” (priority 2016, dated 2023)
Values joined by “and” are separate entries in the source; they are usually repeats but may differ in a detail not shown here. Equal entries are not always repeated.

Assays:
Format in all cases: in vivo
[1] = system: deer ticks (Ixodes scapularis); assay: Filter paper choice test of repelling action (Example 6)
Description: (§1) An in vitro laboratory trial was required to assess the repelling action of nootkatone applied to filter paper against cat fleas (Ctenocephalides felis), deer ticks (Ixodes scapularis), bed bugs (Cimex lectularius), and termites (Reticulitermes flavipes) in a choice test design.
(§2) The sponsor provided a sample of nootkatone (98%), which was diluted in ethanol to a 0.5% concentration. The treatment was applied to filter paper at a rate of 1 mL for a 9 cm filter paper disc, and a rate of 1.9 mL for a 15 cm filter paper disc. A negative control group, consisting of untreated filter paper, was also assessed for comparison purposes.
Deer ticks: Treated and untreated filter papers were cut in half and fitted into the bottom of a 9 cm petri dish. Treated replicates received one half treated and one half untreated filter paper; negative control replicates received untreated filter paper only. The petri dish arenas were then placed on their sides, with the control halves positioned at the lower half and the treated half at the upper half.
Deer ticks: Ticks were introduced, one at a time, to the bottom half of the control (untreated) arena, and monitored to see how long it took them to get to the upper “treated” side of the arena. Ticks were allowed up to three minutes to cross into the upper area of each arena. […] Once a tick had crossed into the upper side of the control arena, it was gently picked up with forceps and placed in the bottom half of the treated arena, and the procedure repeated. Ticks were considered “not repelled” if they crossed onto the treated side of the treated arena within three minutes.
The number of repelled ticks for each replicate was added together, and the average and standard error were calculated across all five replicates. The numbers were divided by the total number of ticks per replicate to obtain the percent repellency.

[2] = system: fire ants (Solenopsis invicta); assay: Treated filter paper knockdown (KD) and mortality trial (Example 4); details: Nootkatone 1% in ethanol on filter paper
Description: (§3) A laboratory trial was conducted to assess the efficacy of nootkatone applied to filter paper against aphids (Schizaphis gramium), dust mites (Dermatophagoides sp.), termites (Reticulitermes flavipes), deer ticks (Ixodes scapularis), biting midges (Culicoides sp.), fire ants (Solenopsis invicta), and mosquitoes (Aedes aegypti and Culex), in terms of knockdown (KD) and mortality. One concentration (1% in ethanol) of nootkatone was assessed for most species, but three concentrations (0.25%, 0.5%, and 1% in ethanol) were assessed for mosquitoes. A negative control group, consisting of filter paper treated with ethanol, was also assessed for comparison purposes for each species.
(§4) Test systems were introduced to treated filter paper, allowed to dry, and then introduced into treatment chamber, where treated arthropods were monitored at intervals up to 72 hours. If 100% mortality was obtained prior to 72 hours, the individual study was halted.
Fire ants—5 replicates of 10 insects were tested per treatment. A Petri dish lid 3.54 inches (9 cm) in diameter was inverted and serve as the substrate for a 2.75 inch (7 cm) treated filter paper circle. The small Petri dish bottom was inverted over the paper and had its sides treated with Fluon® to prevent climbing and force exposure with the filter paper. The entire Petri dish was enclosed with two rubber bands.
(§5) Readings were discontinued if treated mortality reaches […], or control mortality exceeds 20%.

[3] = system: mosquitoes (Aedes aegypti and Culex); assay: Treated filter paper knockdown (KD) and mortality trial (Example 4), statements on both mosquito species
Description: as §3, §4
Midges and mosquitoes—5 replicates of 10 insects per treatment were tested. Inverted 10 ounce (295 ml) clear plastic cups with a 0.5 inch (1.27 cm) hole burned into the center of the bottom, and with the sides coated with Fluon® was used at the treatment containers. The bottoms of the containers consisted of Petri dish lids 3.54 inches (9.0 cm) in diameter lined with a treated filter paper circle the same diameter. The cup was placed over the filter paper in the lid and both were secured in place using 2 rubber bands. The insects were introduced through the hole in the cup, and a plastic disc was placed over the opening to prevent escapes.
as §5

[4] = system: termites (Reticulitermes flavipes); assay: Filter paper choice test of repelling action (Example 6)
Description: as §1, §2
Termites: One long glass tube with screened ends (to provide ventilation) was used for each test container. Test containers were placed into a larger container to prevent escapes, and were kept in darkness and at high humidity for the duration of the experiment. Treated and untreated filter papers were cut into strips and fitted inside the glass tubes. Treated replicates received one treated and one untreated paper; negative control replicates received two untreated strips. The two paper strips were pushed end to end to form one continuous strip, leaving a 2 mm gap running the entire length of the tube for viewing termite activity.
Termites: Termites were placed in the center of each test container and left to distribute undisturbed for 24 hours. At the end of the exposure period, the distribution (on or under each filter paper) of termites was recorded.
(§6) The number of insects in each location was converted to a percentage, for which the average and standard error were calculated across all five replicates.
(§7) Percent repellency was calculated with the following formula: % repellency=(1−((t/T)/(c/C)))*100 • Where t=number of insects on treated side of treated arena • T=total number of insects in treated arena • c=average number of insects on right side of untreated arenas • C=average total number of insects in untreated arenas

[5] = system: bed bugs (Cimex lectularius); assay: as above
Description: as §1, §2
Bed bugs: Petri dishes (9 cm) were modified by cutting a circular hole in the bottom of a clean petri plate. Fine mesh nylon cloth was fastened to the bottom using adhesive, covering the hole. The petri plate was then inverted, with the screened bottom serving as the top. Treated and untreated filter papers were cut in half and fitted into the new bottom of the test containers. Treated replicates received one half treated and one half untreated filter paper; negative control replicates received only untreated filter paper.
Bed bugs: Bed bugs were placed in the center of each test container and covered with the fine-mesh lid. The containers were kept in darkness at ambient laboratory conditions for 24 hours. At the end of the exposure period, the distribution (on or under each filter paper) of bed bugs was recorded.
as §6, §7

[6] = 0.5% nootkatone in ethanol on filter paper
[7] = 0.5% nootkatone in ethanol, 10 ticks per replicate, three minutes, Replicates 1-5
[8] = 0.5% nootkatone in ethanol, 24 Hours post introduction, Replicates 1-3
[9] = 0.5% nootkatone in ethanol, 24 Hours post introduction, Replicates 1-5

C=C(C)[C@@H]1CCC2=CC(=O)C[C@@H](C)[C@]2(C)C1 [Nootkatone, nootkatone]
Repellency (conclusion in words) [1, 6]: highly repellent | Raw data: number of ticks Not repelled, per replicate [1, 7]: 0 (3×) and 1 (2×) | Raw data: number of ticks Repelled, per replicate [1, 7]: 9 (2×) and 10 (3×) | Calculated percent repellency (average ± SE) ([1]; nootkatone (98%) 0.5% in ethanol on filter paper, treated upper half, up to three minutes to cross): 96.0 ± 2.4% | Time required for greater than 90% killing [2]: 24 h | Means Affected ([2]; 30 minutes post introduction): 0.0% | Means Dead ([2]; 30 minutes post introduction): 0.0% | Means KD ([2]; 30 minutes post introduction): 0.0% | Means Affected ([2]; 1 hour post introduction): 0.0% | Means Dead ([2]; 1 hour post introduction): 0.0% | Means KD ([2]; 1 hour post introduction): 0.0% | Means Affected ([2]; 4 hours post introduction): 22.0% | Means Dead ([2]; 4 hours post introduction): 0.0% | Means KD ([2]; 4 hours post introduction): 22.0% | Means Affected ([2]; 24 hours post introduction): 100.0% | Means Dead ([2]; 24 hours post introduction): 100% | Means KD ([2]; 24 hours post introduction): 0.0% | Means Dead ([2]; 24 hours post introduction, listed as nootkatone): 100% | Mortality in mosquitoes ([3]; Nootkatone 0.25% in ethanol on filter paper, the lowest tested concentration): less than 80% | Time required for greater than 90% killing ([3]; Nootkatone 1% in ethanol on filter paper): 24 h | Affected (knockdown+mortality) mosquitoes in both species ([3]; Nootkatone 1% in ethanol on filter paper, by 8 hours post treatment): at least 80% | Mortality in mosquitoes during the experimental duration ([3]; Nootkatone at 1% concentration in ethanol on filter paper, both mosquito species): 94-100% | Mortality in both mosquito species ([3]; nootkatone 0.5% in ethanol on filter paper, by 72 hours post treatment): 82-95% | Repellency (conclusion in words) [4, 6]: highly repellent | Raw data: number of termites on Treated strip of treated tube, per replicate [4, 8]: 0 | Raw data: number of termites on Untreated strip of treated tube, per replicate [4, 8]: 10 | Calculated percent repellency (average ± SE) ([4]; nootkatone (98%) 0.5% in ethanol on filter paper strips, one treated, one untreated, 24 hours): 100.0 ± 0.0% | Repellency (conclusion in words) [5, 6]: highly repellent | Raw data: number of bed bugs on Treated half of treated arena, per replicate [5, 9]: 0 (4×) and 1 | Raw data: number of bed bugs on Untreated half of treated arena, per replicate [5, 9]: 10 (4×) and 9 | Calculated percent repellency (average ± SE) ([5]; nootkatone (98%) 0.5% in ethanol on filter paper, half treated, half untreated arena, 24 hours): 93.9 ± 6.1%
